# Several values for one entry are separate records, joined by “and”; a condition that tells them apart may be missing. Equal entries are not always repeated.
# Legend:
# [1] = test system: bone resorption biomarker HP-1; experiment: Urinary HP-1 (bone resorption biomarker) in ACLT rabbits; type: in vivo, rabbit
# Description: Starting 1 week after sham operation or ACLT, animals were dosed daily for 7 weeks by oral gavage with either MIV-711 (synthesized by Medivir and given as a suspension in 1% Methocel A4C in water) or vehicle (1% Methocel A4C in water) at a dose volume of 4 mL/kg. The four treatment groups (n = 7 in each group) were: (1) sham + vehicle; (2) ACLT + vehicle; (3) ACLT + MIV-711, 30 µmol/kg (low dose) and (4) ACLT + MIV-711, 100 µmol/kg (high dose).
# Urine was collected in the morning from all animals for biomarker measurements before surgery, before dosing on Day 1, Day 10 and during Week 4 and Week 7. The urine was stored frozen (− 70 to − 80 °C) until analysis.
# In rabbits, conventional CTX-I assays to assess bone resorption cannot be used due to species differences. Instead, urinary helical peptide (HP-1) concentrations were measured in rabbits using the MicroVue Helical Peptide kit (Ref: 8022) from Quidel (San Diego, CA) according to the instructions supplied by the manufacturer. In dogs, urinary levels of C-terminal telopeptide of collagen type I (CTX-I) were measured using a commercially available kit (Urine BETA CrossLaps ELISA, Ref: AC-05F1, IDS Nordic Bioscience Diagnostics A/S). In rabbits and dogs, urinary concentrations of C-terminal telopeptide of collagen type II (CTX-II) were measured using the Urine CartiLaps EIA kit (Ref: AC-10F1) from Immunodiagnostics Systems (IDS, Herlev, Denmark) according to the instructions supplied by the manufacturer. In dogs, CTX-II levels were also measured in synovial fluid. Before ELISA analysis, 95 µL of synovial fluid was mixed with 5 µL of hyaluronidase (100 U/mL, Sigma, H-3884). The mixture was incubated overnight at 35 °C. The mixture was then used to measure CTX-II levels (Serum Pre-Clinical CartiLaps ELISA, Ref: AC-08F1, IDS Nordic Bioscience Diagnostics A/S). The creatinine levels in urine were determined at Swedish University of Agricultural Sciences (Uppsala, Sweden), using the enzymatic assay (Cat No. 8L24-01) on the Abbott system Architect c4000.
# [2] = test system: dogs subjected to partial medial meniscectomy; experiment: Dog partial medial meniscectomy study, collagen damage width; type: in vivo
# Source text: Collagen damage across the medial tibial plateau (most severely affected section) was quantified by measuring the total width of the following:
# Any damage (fibrillation ranging from superficial to full thickness loss)
# Severe damage (total or near total loss of collagen to tidemark, >90% thickness)
# Marked damage (extends through 61-90% of the cartilage thickness)
# Moderate damage (extends thru 31-60% of the cartilage thickness)
# Mild damage (extends through 11-30% of the cartilage thickness)
# Minimal damage (very superficial, affecting upper 10% only)
# Single clefts were arbitrarily given a measure of 100 µm and the number of clefts was multiplied by 100 if several are present.
# [3] = test system: dogs subjected to partial medial meniscectomy; experiment: Dog study, principal components analysis of exposure, biomarker, macro- and microscopic data; type: in vivo; conditions: 30 µmol/kg, p < 0.001
# Description: Biomarker data was evaluated by two-way ANOVA, followed by Bonferroni’s or Dunnett’s correction for multiple comparisons when appropriate, using GraphPad Prism, version 6 (San Diego, CA). Synovial MIV-711 exposure data was evaluated by Student’s paired t-test. Data from µCT in rabbits was evaluated by one-way ANOVA followed by Dunnett’s correction for multiple comparisons (GraphPad). Macroscopic parameters in dogs were compared using Student’s unpaired t-test. The exposure data, biomarker data and macro- and microscopic data from the dog study were also imported into R (R Foundation for Statistical Computing Version 2.15.0, Vienna, Austria). A principal components analysis was performed using procedure prcomp. Derived scores were subjected to t-tests in Microsoft Excel 2007. Data are expressed as mean ± SEM, n = number of animals. A p-value < 0.05 was considered statistically significant.
# [4] = individual animals of MIV-711 group
smiles,measurement,setting,value
C#C[C@@H]1CN(C(=O)[C@H](CC(C)C)NC(=O)c2ccc(-c3nc(N4CCN(C)CC4)sc3F)cc2)[C@@H]2C(=O)CO[C@H]12 [MIV-711],"HP-1 levels decreased by up to, vs ACLT vehicle controls","[1]; ACLT rabbits, over doses 30 and 100 µmol/kg and time points",up to 72%
same,"urinary HP-1 levels reduced by, vs ACLT rabbits treated with vehicle","[1]; after 4 weeks, 30 µmol/kg",43%
same,"urinary HP-1 levels reduced by, vs ACLT rabbits treated with vehicle","[1]; after 4 weeks, 100 µmol/kg",68%
same,"urinary HP-1 levels reduced by, vs ACLT rabbits treated with vehicle","[1]; after 7 weeks, 30 µmol/kg (p > 0.05)",25%
same,"urinary HP-1 levels reduced by, vs ACLT rabbits treated with vehicle","[1]; after 7 weeks, 100 µmol/kg",51%
same,"urinary HP-1 levels reduced by, vs ACLT rabbits treated with vehicle","[1]; after 10 days of dosing, 30 µmol/kg",45%
same,"urinary HP-1 levels reduced by, vs ACLT rabbits treated with vehicle","[1]; after 10 days of dosing, 100 µmol/kg",72%
same,"collagen degeneration, percentage of total width: Mild",[2]; group Mean,17%
same,"collagen degeneration, percentage of total width: Mild+ Minimal",[2]; group Mean,28%
same,"collagen degeneration, percentage of total width: Minimal",[2]; group Mean,11%
same,"collagen degeneration, percentage of total width: Moderate+ Mild+ Minimal",[2]; group Mean,30%
same,"collagen degeneration, percentage of total width: Normal",[2]; group Mean,70%
same,"collagen degeneration, percentage of total width: Severe",[2]; group Mean,0%
same,"collagen degeneration, percentage of total width: Severe+ Marked",[2]; group Mean,0%
same,"collagen degeneration, percentage of total width: Severe+ Marked+ Moderate",[2]; group Mean,2%
same,"collagen degeneration, percentage of total width: Severe+ Marked+ Moderate+ Mild",[2]; group Mean,19%
same,"collagen degeneration, percentage of total width: Total",[2]; group Mean,30%
same,"collagen degeneration, percentage of total width: Mild",[2]; [4],10% and 26% and 11% and 4% and 31% and 27% and 13% and 25% and 30% and 14% and 8% and 16%
same,"collagen degeneration, percentage of total width: Mild+ Minimal",[2]; [4],18% and 31% and 23% and 14% and 35% and 39% and 20% and 24% and 34% and 58% and 25% and 16% and 28% and 30%
same,"collagen degeneration, percentage of total width: Minimal",[2]; [4],9% and 5% and 12% and 10% and 4% and 7% and 8% and 27% and 2% and 20% and 14%
same,"collagen degeneration, percentage of total width: Moderate+ Mild+ Minimal",[2]; [4],19% and 31% and 23% and 24% and 35% and 39% and 27% and 34% and 58% and 29% and 18% and 28% and 26% and 30%
same,"collagen degeneration, percentage of total width: Normal",[2]; [4],81% and 69% and 77% and 76% and 65% and 61% and 73% and 62% and 42% and 71% and 82% and 72% and 74% and 70%
same,"collagen degeneration, percentage of total width: Severe",[2]; [4],0%
same,"collagen degeneration, percentage of total width: Severe+ Marked",[2]; [4],0%
same,"collagen degeneration, percentage of total width: Severe+ Marked+ Moderate",[2]; [4],1% and 0% and 10% and 7% and 4% and 2% and 3%
same,"collagen degeneration, percentage of total width: Severe+ Marked+ Moderate+ Mild",[2]; [4],11% and 26% and 14% and 31% and 27% and 20% and 13% and 25% and 30% and 17% and 16% and 8% and 19%
same,"collagen degeneration, percentage of total width: Total",[2]; [4],19% and 31% and 23% and 24% and 35% and 39% and 27% and 38% and 58% and 29% and 18% and 28% and 26% and 30%
same,"% inhibition, collagen degeneration width: Mild",[2]; versus Vehicle,-2%
same,"% inhibition, collagen degeneration width: Mild+ Minimal",[2]; versus Vehicle,12%
same,"% inhibition, collagen degeneration width: Minimal",[2]; versus Vehicle,28%
same,"% inhibition, collagen degeneration width: Moderate+ Mild+ Minimal",[2]; versus Vehicle,12%
same,"% inhibition, collagen degeneration width: Normal",[2]; versus Vehicle,-6%
same,"% inhibition, collagen degeneration width: Severe+ Marked+ Moderate",[2]; versus Vehicle,21%
same,"% inhibition, collagen degeneration width: Severe+ Marked+ Moderate+ Mild",[2]; versus Vehicle,1%
same,"% inhibition, collagen degeneration width: Total",[2]; versus Vehicle,12%
same,"principal component Score 2 (mainly biomarker data), vehicle vs MIV-711-treated groups",[3],significantly different
